Like-named read-outs stand apart in the source and are kept apart here.
Legend:
[1] = test system: WA09 hESCs; assay: LC-MS metabolomics: abundance changes of metabolites in hESCs dosed at circulating dose; type: cell-based, human
Protocol: (§1) These medium controls provided baseline mass spectral data.
(§2) The 2.5 mL of spent media per well from Example 1 was added to 1.67 mL acetonitrile to make a 40% acetonitrile solution. The acetonitrile acts to “quench” the spent media sample, slowing or halting many metabolic processes and aiding in precipitation of cellular proteins. Samples were either stored at −80° C. for later analysis, or for immediate analysis, 250 μL of the quenched solution was mixed with 250 μL of water, to a final concentration of 20% acetonitrile, then added to a 3 kDa molecular weight cut-off filter spin column (Microcon YM-3 Centrifugal Filter, Millipore, Billerica, Mass.). Each sample was then centrifuged in an IEC CL31R Multispeed Centrifuge (Thermo Scientific, Waltham, Mass.) at 13,000×g at 4° C. for 200 minutes. Following centrifugation, the flow-through was saved then dried for several hours in a Savant High Capacity Speedvac Plus Concentrator. The concentrated sample was then dissolved in 50 μL of 0.1% formic acid prior to LC-MS analysis.
(§3) 5 μl of each sample was injected.
(§4) Following LC-MS, chromatograms were inspected for reproducibility. LC-MS runs with total ion counts that vary by more than 25% were repeated to ensure that samples could be accurately compared. These runs were then used to create mass features that correspond to molecules detected across the different LC-MS runs. Mass features were extracted from the LC-MS data using MassHunter Qualitative Analysis software (Agilent Technologies). The following criteria were used as general guidelines, however some flexibility and optimization was needed. m/z values within the range of 75-1500, with a charge of +1 or −1, and a centroid height greater than 1000 were used to generate “mass features.” The mass peaks that pass these criteria were used to fit isotope and adduct (Na^+, K^+, and NH4^+) patterns corresponding to individual molecules, and to establish the abundance of each mass feature. The abundance is calculated by MassHunter software as the sum of the isotopic and adduct peaks that correspond to a single molecular feature. After data deconvolution, mass features showing at least two ions (e.g. (M^+H)^+ and (M^+H)^++1 or (M^+H)^+ and (M^+Na)^+) and an abundance value greater than 50000 for positive-ion mode data and 10000 in negative-ion mode data were included in the data set used for binning of the mass features.
The media represents a major factor in the experimental system, in that it contributes many peaks to mass spectra. This can be accounted for in a data dependent manner to select for mass feature bins, which are present at significant levels above the media. Mass feature bins present solely in the presence of cells (not detected in media) or with average abundance levels different than uncultured media were considered to be secreted, excreted, consumed, or identified metabolites.
The exact mass of the metabolite must be within 10 ppm of the known mass of the compound. 2) The retention time of the metabolite detected in the cell media must be within + or −30 seconds of a reference standard on which MS data had been acquired under the same conditions. The reference standards were dissolved in mTeSR media and prepared in exactly the same manner (described above) as the samples from the cells, including the addition of acetonitrile, Centricon centrifugal filtration, drying then dissolution in formic acid prior to LC-MS analysis. 3) The MS-MS fragmentation spectra of the metabolite detected in the cell media must be a reasonable match with that of the reference standard, including abundances and m/z values of the fragment ions. If published MS-MS spectra are available, the MS-MS spectra must also be a reasonable match.

[2] = test system: WA09 human embryonic stem (hES) cells; assay: PLS-DA prediction of teratogenicity from secretome of treated hES cells (Example 9); conditions: DevTox pharmaceutical
Text: These included 11 known teratogens and 11 known non-teratogens. The current model is based on the mean fold change (treatment versus its associated intra-experimental control) of 15 metabolites common among the secretome of hES cells treated with pharmaceutical agents and unknown chemical compounds.

[3] = test system: hESCs; assay: Arginine / ADMA fold change ratio (integrated EICs) in dosed hESCs vs controls; conditions: for Arg fold change/ADMA fold change: EIC areas, controls vs. dosed
Protocol: All tested chemicals were purchased from Sigma-Aldrich (St. Louis, Mo.). Cells were dosed with drugs at a concentration equivalent to their published serum circulating therapeutic dosages. Dosing was performed on hESCs in 6-well plates in triplicate, i.e. three wells per plate. The plates were dosed in triplicate, so there were a total of nine dosed wells. In parallel, there were nine “control” wells, in which hESCs were cultured with mTeSR1 containing no drug, and three wells containing Matrigel with mTeSR1 medium without hESCs that served as medium controls. Lastly, three wells of dosed medium controls were prepared, containing Matrigel, mTeSR1 and drug, but no hESCs (FIG. 1). These medium controls provided baseline mass spectral data. On the first day of dosage, the determined concentration of drug was dissolved in mTeSR1, and then 2.5 mL of this solution was added to each dosed well of hESCs. Each day, for four days, the medium was removed and new dosed medium was added. On the fourth day, the medium was removed and added to acetonitrile to make a 40% acetonitrile solution, as outlined in the Sample Preparation section below.
Mass spectrometry was performed using an Agilent QTOF LC/MS system consisting of a G6520AA QTOF high resolution mass spectrometer capable of exact mass MS and MS/MS. In order to facilitate separation of small molecules with a wide range of polarity and to allow increased retention of hydrophilic species, Hydrophilic Interaction Liquid Chromatography (Alpert 1990) was employed. Each sample was run for 30 minutes with the gradient shown in Table 3 at a flow rate of 0.5 mL/min, using 0.1% formic acid in water (Solvent A) and 0.1% formic acid in acetonitrile (Solvent B). Electrospray ionization was employed using a dual ESI source, with an Agilent isocratic pump continuously delivering an internal mass reference solution into the source at approx. 0.01 mL/min. The mass range of the instrument was set to 100-1700 Da. A Phenomenex Luna HILIC column with dimensions 3×100 mm 3 μm particle size was used and maintained at 30° C. 5 μl of each sample was injected. Data acquisition was performed with Agilent MassHunter using high-resolution exact mass conditions.
Valproate is known to cause neural tube defects (DiLiberti et al. 1984) while nitric oxide synthase activity is essential for neural tube closure (Nachmany et al. 2006).

[4] = test system: WA09 hESCs; assay: Random forest prediction of teratogenicity from metabolomics of spent media of dosed hESCs; type: cell-based, human; conditions: for Predicted teratogenicity (random forest statistical model): blind study, model trained on TS1, 142 mass features, circulating dose
Protocol: WA09 hESCs, obtained from WiCell Research Institute (NIH National Stem Cell Bank, Madison, Wis.) were cultured in 6-well plates on Matrigel (BD Biosciences, San Jose, Calif.), in mTeSR1 medium (Stem Cell Technologies, Vancouver, BC) incubated at 37° C. under 5% CO2 in a Thermo Electron Form a Series II Water Jacket CO2 Incubator. hESCs were passaged every three or four days at a 1:3 or 1:6 seeding density for routine culture conditions. For dosing experiments, hESCs were passaged at a low density of 1:10 or 1:12 so that they would not require passaging during the […] dosing protocol. To passage hES cells, the StemPro® EZPassage™ disposable stem cell passaging tool (Invitrogen, Carlsbad, Calif.) was used to detach the cells from the wells. Detached cells were removed with a pipette and distributed to new Matrigel plates.
as §1, §2, §3, §4
Following feature selection by MassHunter, the data was further preprocessed by MassProfiler (Agilent) software which aligns mass features across multiple LC-MS data files. Mass features were generated for data from each drug treatment experiment (dosed and control) using the default alignment settings in MassProfiler with the requirement that a feature be present in at least 80% of the samples in one treatment. The mass feature datasets for each drug treatment experiment were further processed in a global manner using custom analysis scripts executed in the R statistical software environment. […]

[5] = blinded drugs; cited from earlier work
[6] = high dose (H = 10x circulating dose)
[7] = low dose (L = 0.1x circulating dose)

With `NC(=O)NO` [Hydroxyurea] the “Abundance of succinic acid” value ([1]; drug-treated vs control) was “significant down regulation”, the “% Non (PLS-DA class probability non-teratogen)” value (from here on “% Non”) [2, 6] was 0.32 and the “% Ter (PLS-DA class probability teratogen)” value (from here on “% Ter”) [2, 6] was 0.68. For the same molecule, the “Confidence (difference between class probabilities)” value [2, 6] was 0.36, the Prediction [2, 6] was “Ter” and the “% Non” value [2, 7] was 0.64. The “% Ter” value [2, 7] was 0.36, the “Confidence (difference between class probabilities)” value [2, 7] was 0.28 and the Prediction [2, 7] was “Non”. For the same molecule, the “Arg/ADMA Prediction” value [3] was “Ter” and the “Arg fold change/ADMA fold change” value [3] was 2.52.
With `Cc1ncc(C[n+]2csc(CCO)c2C)c(N)n1` [Thiamine] the “% Non” value [2, 6] was 0.78, the “% Ter” value [2, 6] was 0.22 and the “Confidence (difference between class probabilities)” value [2, 6] was 0.56. For the same molecule, the Prediction [2, 6] was “Non”, the “% Non” value [2, 7] was 0.82 and the “% Ter” value [2, 7] was 0.18. The “Confidence (difference between class probabilities)” value [2, 7] was 0.64, the Prediction [2, 7] was “Non” and the “Predicted teratogenicity (random forest statistical model)” value (from here on “Predicted teratogenicity”) [4] was “Non”. The “Arg fold change/ADMA fold change” value [3] was 1.00 and the Actual teratogenicity [5] was “Non”.
For `CCCC(CCC)C(=O)O` [Valproic Acid], the “Abundance of asymmetric dimethylarginine (ADMA)” value ([1]; drug-treated vs control) was “significant fold decrease”, the “Abundance of succinic acid” value ([1]; drug-treated vs control) was “significant down regulation” and the “Arg/ADMA Prediction” value [3] was “Ter”. For the same molecule, the “Arg fold change/ADMA fold change” value [3] was 2.11.
In the case of `CS(=O)(=O)OCCCCOS(C)(=O)=O` [Busulfan], the “Concentration of GABA in the secretome of hESCs” value ([1]; dosed hESCs) is reported as “Increased concentrations”, the “% Non” value [2, 6] is reported as 0.28 and the “% Ter” value [2, 6] is reported as 0.72. For the same molecule, the “Confidence (difference between class probabilities)” value [2, 6] was 0.44, the Prediction [2, 6] was “Ter” and the “% Non” value [2, 7] was 0.29. For the same molecule, the “% Ter” value [2, 7] was 0.71, the “Confidence (difference between class probabilities)” value [2, 7] was 0.42 and the Prediction [2, 7] was “Ter”. For the same molecule, the “Arg/ADMA Prediction” value [3] was “Ter” and the “Arg fold change/ADMA fold change” value [3] was 1.12.
With `O=c1[nH]cc(F)c(=O)[nH]1` [5-Fluorouracil] the “Changes in metabolites on dosing” value [1] was “most profound changes in many metabolites”, the “Abundance of succinic acid” value ([1]; drug-treated vs control) was “significant down regulation” and the “% Non” value [2, 6] was 0.32. For the same molecule, the “% Ter” value [2, 6] was 0.68, the “Confidence (difference between class probabilities)” value [2, 6] was 0.36 and the Prediction [2, 6] was “Ter”. For the same molecule, the “% Non” value [2, 7] was 0.28, the “% Ter” value [2, 7] was 0.72 and the “Confidence (difference between class probabilities)” value [2, 7] was 0.44. The Prediction [2, 7] was “Ter”, the “Arg/ADMA Prediction” value [3] was “Ter” and the “Arg fold change/ADMA fold change” value [3] was 43.93.
With `O=P1(N(CCCl)CCCl)NCCCO1` (stereo not shown) [Cyclophosphamide] the “Abundance of succinic acid” value ([1]; drug-treated vs control) was “significant down regulation”, the “% Non” value [2, 6] was 0.45 and the “% Ter” value [2, 6] was 0.55. For the same molecule, the “Confidence (difference between class probabilities)” value [2, 6] was 0.1, the Prediction [2, 6] was “Ter” and the “% Non” value [2, 7] was 0.41. For the same molecule, the “% Ter” value [2, 7] was 0.59, the “Confidence (difference between class probabilities)” value [2, 7] was 0.18 and the Prediction [2, 7] was “Ter”. For the same molecule, the “Predicted teratogenicity” value [4] was “Ter”, the “Arg fold change/ADMA fold change” value [3] was 1.56 and the “Arg/ADMA Prediction” value ([3]; from fold change ratio) was “Ter”.
With `NC(=O)N1c2ccccc2C=Cc2ccccc21` [Carbamazepine] the “Abundance of succinic acid” value ([1]; drug-treated vs control) was “significant down regulation”, the “% Non” value [2, 6] was 0.37 and the “% Ter” value [2, 6] was 0.63. The “Confidence (difference between class probabilities)” value [2, 6] was 0.26, the Prediction [2, 6] was “Ter” and the “% Non” value [2, 7] was 0.5. For the same molecule, the “% Ter” value [2, 7] was 0.5, the “Confidence (difference between class probabilities)” value [2, 7] was 0 and the Prediction [2, 7] was “Non”. The “Predicted teratogenicity” value [4] was “Ter”, the “Arg/ADMA Prediction” value [3] was “Ter” and the “Arg fold change/ADMA fold change” value [3] was 1.12.
For `CO[C@H]1/C=C/O[C@@]2(C)Oc3c(C)c(O)c4c(O)c(c(/C=N/N5CCN(C)CC5)c(O)c4c3C2=O)NC(=O)/C(C)=C\C=C\[C@H](C)[C@H](O)[C@@H](C)[C@@H](O)[C@@H](C)[C@H](OC(C)=O)[C@@H]1C` [Rifampicin], the “% Non” value [2, 6] was 0.27, the “% Ter” value [2, 6] was 0.73 and the “Confidence (difference between class probabilities)” value [2, 6] was 0.46. For the same molecule, the Prediction [2, 6] was “Ter”, the “% Non” value [2, 7] was 0.46 and the “% Ter” value [2, 7] was 0.54. The “Confidence (difference between class probabilities)” value [2, 7] was 0.08, the Prediction [2, 7] was “Ter” and the “Classification by the refined random forest model (FIG. 3)” value ([4]; 18-feature model, 26 drug treatment experiments) was “misclassified as non-teratogens”. For the same molecule, the “Predicted teratogenicity” value [4] was “Ter”, the “Arg/ADMA Prediction” value [3] was “Ter” and the “Arg fold change/ADMA fold change” value [3] was 0.81.
With `Nc1ccn([C@@H]2O[C@H](CO)[C@@H](O)[C@@H]2O)c(=O)n1` [Cytosine Arabinoside] the “Changes in metabolites on dosing” value [1] was “most profound changes in many metabolites”, the “Abundance of succinic acid” value ([1]; drug-treated vs control) was “significant down regulation” and the “Arg/ADMA Prediction” value [3] was “Ter”. The “Arg fold change/ADMA fold change” value [3] was 67.01.
For `CN(Cc1cnc2nc(N)nc(N)c2n1)c1ccc(C(=O)N[C@@H](CCC(=O)O)C(=O)O)cc1` [Methotrexate], the “Abundance of succinic acid” value ([1]; drug-treated vs control) was “significant down regulation”, the “% Non” value [2, 6] was 0.42 and the “% Ter” value [2, 6] was 0.58. For the same molecule, the “Confidence (difference between class probabilities)” value [2, 6] was 0.16, the Prediction [2, 6] was “Ter” and the “% Non” value [2, 7] was 0.48. For the same molecule, the “% Ter” value [2, 7] was 0.52, the “Confidence (difference between class probabilities)” value [2, 7] was 0.04 and the Prediction [2, 7] was “Ter”. The “Arg/ADMA Prediction” value [3] was “Ter” and the “Arg fold change/ADMA fold change” value [3] was 2.54.

Reference: patent US8703424B2, “Predicting human developmental toxicity of pharmaceuticals using human stem-like cells and metabolomics” (Stemina Biomarker Discovery, Inc., priority 2010, dated 2014)
